In ChEMBL document CHEMBL1148266, “Synthesis and mitochondrial complex I inhibition of dihydroxy-cohibin A, non-THF annonaceous acetogenin analogue” (Bioorg Med Chem Lett, 2004):

Organism: Bos taurus
Assay: Inhibition concentration was evaluated in NADH oxidase assay using bovine heart submitochondrial particles
Type: functional

SMILES	IC50
CCCCCCCCCCCC[C@H](OCOC)[C@H](CC[C@@H](OCOC)[C@H](O)CCCCCCCCCCCCC1=C[C@H](C)OC1=O)OCOC	4.1 µM
CCCCCCCCCCCC[C@H](O)[C@@H](O)CC[C@@H](O)[C@H](O)CCCCCCCCCCCCC1=C[C@H](C)OC1=O [DIHYDROXY-COHIBIN A]	0.02 µM
